We go through 20 compounds from US11512090B2, “Muscarinic acetylcholine M1 receptor antagonists” (PIPELINE THERAPEUTICS, INC., priority 2018, dated 2022).

Read-outs that look alike come from different tables or passages of the source.

Format in all cases: cell-based
The target of one assay is T1, human M1 receptor (Homo sapiens, UniProt P11229).
T1 sequence (P11229 1-460): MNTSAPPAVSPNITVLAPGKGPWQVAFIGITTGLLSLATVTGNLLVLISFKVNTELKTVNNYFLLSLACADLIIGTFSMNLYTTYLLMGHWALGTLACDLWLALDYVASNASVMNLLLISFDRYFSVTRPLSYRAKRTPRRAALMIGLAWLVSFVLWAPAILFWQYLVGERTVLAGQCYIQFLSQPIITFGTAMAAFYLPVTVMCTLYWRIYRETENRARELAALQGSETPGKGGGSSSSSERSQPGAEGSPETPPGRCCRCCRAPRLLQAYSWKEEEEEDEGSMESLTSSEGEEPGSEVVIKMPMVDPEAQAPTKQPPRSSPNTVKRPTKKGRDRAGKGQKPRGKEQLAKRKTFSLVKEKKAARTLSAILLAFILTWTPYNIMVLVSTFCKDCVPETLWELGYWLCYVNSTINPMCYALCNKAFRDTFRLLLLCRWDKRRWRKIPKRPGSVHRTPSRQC
As to the kind of experiment: In vitro functional assay of muscarinic acetylcholine receptor activity (aequorin calcium flux, antagonist mode vs EC80 acetylcholine), M1. On the procedure:
(§1) CHO-K1 cells stably expressing human M1 receptor with Aequorin (Perkin Elmer) were grown in F12 media, 10% FBS with 0.4 mg/mL geneticin and […]. Cells were grown to confluence and frozen down to be assayed at a later date. On the day of the experiment cells were thawed in a 37° C. water bath, resuspended in DMEM/HAM's F12 with HEPES (Invitrogen)+0.1% protease-free BSA (assay buffer), and spun down to remove freezing media. After centrifugation, supernatant was removed and 12 mL of assay buffer was added. Coelenterazine h (Promega) was added to the cells at a final concentration of 5 uM and incubated for 4 hours at room temperature in the dark. Compound master plate-96 deep well (Corning) were formatted in a 8-point DRC in assay buffer with 0.2% DMSO at a starting concentration of 60 uM (2×). After 4 hours of incubation, cells were plated at a concentration of 5×10^5 cells/well in 96 well white-walled, tissue culture-treated, clear-bottom plates (VWR). Compounds were added to the daughter plate, and cells plus compound were incubated at room temperature for 30 minutes in the dark.
(§2) Calcium flux was measured using the FlexStation 3 (Molecular Devices). To measure the antagonist dose-response, the EC80 of Acetylcholine was injected to the daughter plate using the automated compound transfer function of the Flex Station, and the increase in luminescence was measured over time. Antagonist activity was analyzed as a concentration dependent decrease in the EC80 acetylcholine response. Dose response curves were generated using Prism (GraphPad Software). The IC50 of the compounds was calculated from the dose response curve.
(In general: A change in cytosolic calcium serves as a functional read-out for many receptors and channels.)

The target in a further assay is T2, M2 (Homo sapiens, UniProt P08172).
T2 sequence (P08172 1-466): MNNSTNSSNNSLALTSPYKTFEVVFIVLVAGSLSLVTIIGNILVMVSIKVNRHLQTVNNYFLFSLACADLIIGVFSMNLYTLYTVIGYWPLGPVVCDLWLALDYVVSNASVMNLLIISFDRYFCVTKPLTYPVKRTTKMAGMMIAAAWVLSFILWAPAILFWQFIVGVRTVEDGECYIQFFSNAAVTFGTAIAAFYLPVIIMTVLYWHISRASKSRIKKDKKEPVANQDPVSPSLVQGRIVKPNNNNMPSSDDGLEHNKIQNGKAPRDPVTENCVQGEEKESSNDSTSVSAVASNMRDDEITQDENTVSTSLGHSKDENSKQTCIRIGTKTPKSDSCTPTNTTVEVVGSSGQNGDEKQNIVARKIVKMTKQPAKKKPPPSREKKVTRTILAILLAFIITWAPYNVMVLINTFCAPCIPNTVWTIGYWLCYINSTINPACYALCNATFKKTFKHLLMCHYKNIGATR
As to the kind of experiment: In vitro functional assay of muscarinic acetylcholine receptor activity, M2. On the procedure: [The procedure below names another target; the source lists this target under the same test.] as §1, §2

The next assay concerns the target M3 (Homo sapiens, UniProt P20309). As to the kind of experiment: In vitro functional assay of muscarinic acetylcholine receptor activity, M3. Conditions: antagonist IC50 at M3; read-out: M3 IC50. The protocol:
[The procedure below names another target; the source lists this target under the same test.] as §1, §2

Setting [1] is: antagonist IC50 at M2, read-out: M2 IC50.
[2] abbreviates: CHO-K1 cells stably expressing human M1 receptor with Aequorin, decrease in EC80 acetylcholine response, read-out: M1 IC50.

Broadly, the IC50 is the point on the concentration scale where inhibition reaches its midpoint.

M3, sequence (P20309 whole entry): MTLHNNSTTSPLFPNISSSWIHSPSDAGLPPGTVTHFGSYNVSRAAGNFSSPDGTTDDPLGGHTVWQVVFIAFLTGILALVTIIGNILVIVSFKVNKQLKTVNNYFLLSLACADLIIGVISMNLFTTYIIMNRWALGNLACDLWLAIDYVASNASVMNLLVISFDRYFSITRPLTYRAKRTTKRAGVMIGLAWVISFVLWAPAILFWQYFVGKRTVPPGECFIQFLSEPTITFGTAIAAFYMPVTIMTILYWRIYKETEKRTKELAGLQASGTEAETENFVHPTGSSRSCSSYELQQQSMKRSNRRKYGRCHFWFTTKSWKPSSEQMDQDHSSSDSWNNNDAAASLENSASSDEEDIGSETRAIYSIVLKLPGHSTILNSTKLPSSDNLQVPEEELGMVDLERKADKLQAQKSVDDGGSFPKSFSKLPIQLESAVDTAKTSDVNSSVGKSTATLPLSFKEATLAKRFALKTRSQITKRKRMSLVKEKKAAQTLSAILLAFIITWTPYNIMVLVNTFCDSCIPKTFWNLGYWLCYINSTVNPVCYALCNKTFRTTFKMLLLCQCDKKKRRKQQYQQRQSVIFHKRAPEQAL

For `O=C(COCc1cccc2ncccc12)N1C[C@H]2CC[C@@H](C1)N2c1ccc(F)cn1` [Example 1, 1-((1R,5S)-8-(5-fluoropyridin-2-yl)-3,8-diazabicyclo[3.2.1]octan-3-yl)-2-(quinolin-5-ylmethoxy)ethan-1-one], the IC50 on human M1 receptor is under 0.1 µM; on M2 (setting [1]) it was 1 to 10 µM; on M3 it was over 10 µM.

Turning to `O=C(CC1CN(c2cccc3ncccc23)C1)N1C[C@H]2CC[C@@H](C1)N2c1ccc(F)cn1` [Example 2, 1-((1R,5S)-8-(5-fluoropyridin-2-yl)-3,8-diazabicyclo[3.2.1]octan-3-yl)-2-(1-(quinolin-5-yl)azetidin-3-yl)ethan-1-one], the IC50 at human M1 receptor (setting [2]) was 1 to 10 µM; at M2 (setting [1]) it was 1 to 10 µM; on M3, over 10 µM.

On to `O=C(N1CC(Oc2cccc3cnccc23)C1)N1C[C@H]2CC[C@@H](C1)N2c1ccc(F)cn1` [Example 3, ((1R,5S)-8-(5-fluoropyridin-2-yl)-3,8-diazabicyclo[3.2.1]octan-3-yl)(3-(isoquinolin-5-yloxy)azetidin-1-yl)methanone], for which the values for the IC50 at human M1 receptor (setting [2]), on M2 and on M3 were over 10 µM, 0.1 to 1 µM and 1 to 10 µM, respectively.

Turning to `O=C(CCCc1cccc2ncccc12)N1CCN(c2ccncc2)CC1` [Example 4, 1-(4-(pyridin-4-yl)piperazin-1-yl)-4-(quinolin-5-yl)butan-1-one], the IC50 on human M1 receptor (setting [2]) is under 0.1 µM; at M2 (setting [1]), 1 to 10 µM; on M3, 1 to 10 µM.

Regarding `CC1CN(c2ccc(F)cn2)CCN1C(=O)[C@H]1C[C@H](Oc2cccc3ncsc23)C1` (stereo partly drawn) [Example 5, ((1R,3R)-3-(benzo[d]thiazol-7-yloxy)cyclobutyl)(4-(5-fluoropyridin-2-yl)-2-methylpiperazin-1-yl)methanone], the IC50 at human M1 receptor (setting [2]), on M2 (setting [1]) and at M3 was over 10 µM in each case.

Regarding `O=C(C1CN(Cc2cccc3ncsc23)C1)N1C[C@H]2CC[C@@H](C1)N2c1ccncc1F` [Example 7], the IC50 is 1 to 10 µM on human M1 receptor (setting [2]), over 10 µM on M2 (setting [1]) and over 10 µM on M3.

Regarding `O=C(CCNCc1cccc2ncsc12)N1C[C@H]2CC[C@@H](C1)N2c1ccncc1F` [Example 8, 3-((benzo[d]thiazol-7-ylmethyl)amino)-1-((1R,5S)-8-(3-fluoropyridin-4-yl)-3,8-diazabicyclo[3.2.1]octan-3-yl)propan-1-one], the IC50 at human M1 receptor is under 0.1 µM; on M2 (setting [1]), 1 to 10 µM; on M3 it was 1 to 10 µM.

As to `O=C(C1CC1COc1cccc2ncsc12)N1C[C@H]2CC[C@@H](C1)N2c1ccncc1F` (stereo partly drawn) [Example 9, (2-((benzo[d]thiazol-7-yloxy)methyl)-cyclopropyl)((1R,5S)-8-(3-fluoropyridin-4-yl)-3,8-diazabicyclo[3.2.1]octan-3-yl)methanone], the results for the IC50 at human M1 receptor (setting [2]), on M2 (setting [1]) and at M3 were over 10 µM, 1 to 10 µM and 1 to 10 µM, respectively.

Take `O=C(CCNCc1cccc2ncccc12)N1C[C@H]2CC[C@@H](C1)N2c1ccncc1F` [Example 10, 1-((1R,5S)-8-(3-fluoropyridin-4-yl)-3,8-diazabicyclo[3.2.1]octan-3-yl)-3-((quinolin-5-ylmethyl)amino)propan-1-one]: the values for the half-inhibitory concentration (IC50) on human M1 receptor (setting [2]), on M2 (setting [1]) and on M3 were 1 to 10 µM, over 10 µM and over 10 µM, respectively.

For the compound `O=C(COCCc1cccc2ncccc12)N1C[C@H]2CC[C@@H](C1)N2c1ccncc1F` [Example 11, 1-((1R,5S)-8-(3-fluoropyridin-4-yl)-3,8-diazabicyclo-[3.2.1]octan-3-yl)-2-(2-(quinolin-5-yl)ethoxy)ethan-1-one], the values for the IC50 on human M1 receptor, at M2 (setting [1]) and on M3 were 0.1 to 1 µM, 1 to 10 µM and over 10 µM, respectively.

Regarding `O=C(CCOCc1cccc2nccn12)N1C[C@H]2CC[C@@H](C1)N2c1ccncc1F` [Example 12, 1-((1R,5S)-8-(3-fluoropyridin-4-yl)-3,8-diazabicyclo[3.2.1]octan-3-yl)-3-(imidazo[1,2-a]pyridin-5-ylmethoxy)propan-1-one], the IC50 at human M1 receptor was 0.1 to 1 µM; on M2 (setting [1]), 1 to 10 µM; on M3, over 10 µM.

For the compound `Cc1cc(F)cnc1N1CCN(C(=O)CNCc2cccc3ncccc23)[C@@H](C)C1` [Example 13, 1-[(2S)-4-(5-fluoro-3-methylpyridin-2-yl)-2-methylpiperazin-1-yl]-2-[[(quinolin-5-yl)methyl]amino]ethanone], the IC50 at human M1 receptor (setting [2]) is 0.1 to 1 µM; on M2 (setting [1]), 1 to 10 µM; at M3, 1 to 10 µM.

Regarding `O=C(CCNCc1cccc2nccn12)N1CC2CCC(C1)N2c1ccncc1F` [Example 14, 1-[8-(3-fluoropyridin-4-yl)-3,8-diazabicyclo[3.2.1]octan-3-yl]-3-[([imidazo[1,2-a]pyridin-5-yl]methyl)amino]propan-1-one], the values for the IC50 at human M1 receptor, on M2 (setting [1]) and on M3 were 0.1 to 1 µM, over 10 µM and over 10 µM, respectively.

`O=C(CNCCc1cccc2ncsc12)N1CC2CCC(C1)N2c1ccncc1F` [Example 15, 2-[[2-(1,3-benzothiazol-7-yl)ethyl]amino]-1-[8-(3-fluoropyridin-4-yl)-3,8-diazabicyclo[3.2.1]octan-3-yl]ethan-1-one]: the IC50 on human M1 receptor was 0.1 to 1 µM; on M2 (setting [1]), 1 to 10 µM; at M3, over 10 µM.

With `O=C(CCS(=O)(=O)c1cccc2ncsc12)N1CCN(c2ccncc2F)CC1` [Example 16, 3-(benzo[d]thiazol-7-ylsulfonyl)-1-(4-(3-fluoropyridin-4-yl)piperazin-1-yl)propan-1-one], the figures for the concentration for half-maximal inhibition (IC50) at human M1 receptor (setting [2]), at M2 (setting [1]) and at M3 were 0.1 to 1 µM, 1 to 10 µM and over 10 µM, respectively.

For `COc1cnc2cccc(S(=O)(=O)CCCC(=O)N3CCN(c4ncc(F)cc4C)C[C@@H]3C)c2c1` [Example 17, (S)-1-(4-(5-fluoro-3-methylpyridin-2-yl)-2-methylpiperazin-1-yl)-4-((3-methoxyquinolin-5-yl)sulfonyl)butan-1-one], the concentration for half-maximal inhibition (IC50) was 0.1 to 1 µM on human M1 receptor (setting [2]), 0.1 to 1 µM at M2 (setting [1]) and 1 to 10 µM at M3.

As to `Cc1cc(F)cnc1N1CCN(C(=O)CCS(=O)(=O)c2cccc3ncsc23)[C@@H](C)C1` [Example 18, 3-(1,3-benzothiazole-7-sulfonyl)-1-[(2S)-4-(5-fluoro-3-methylpyridin-2-yl)-2-methylpiperazin-1-yl]propan-1-one], the half-inhibitory concentration (IC50) at human M1 receptor (setting [2]) was under 0.1 µM; at M2 (setting [1]), 1 to 10 µM; at M3, 1 to 10 µM.

For `C[C@@H]1CN(c2ccncc2Cl)CCN1C(=O)CCS(=O)(=O)c1cccc2ncsc12` [Example 19, 3-(1,3-benzothiazole-7-sulfonyl)-1-[(2R)-4-(3-chloropyridin-4-yl)-2-methylpiperazin-1-yl]propan-1-one], the IC50 was under 0.1 µM at human M1 receptor (setting [2]), 0.1 to 1 µM on M2 (setting [1]) and over 10 µM at M3.

For `C[C@H]1CN(c2ccnc(N)c2)CCN1C(=O)CCS(=O)(=O)c1cccc2ncsc12` [Example 21, (S)-1-(4-(2-aminopyridin-4-yl)-2-methylpiperazin-1-yl)-3-(benzo[d]thiazol-7-ylsulfonyl)propan-1-one], the IC50 was under 0.1 µM at human M1 receptor (setting [2]), 0.1 to 1 µM on M2 (setting [1]) and 1 to 10 µM at M3.

As to `O=C(CCS(=O)(=O)c1cccc2ncsc12)N1CCC(c2ccc(C(F)(F)F)cn2)CC1` [Example 22, 3-(1,3-benzothiazole-7-sulfonyl)-1-[4-[5-(trifluoromethyl)pyridin-2-yl]piperidin-1-yl]propan-1-one], the IC50 on human M1 receptor (setting [2]) was 0.1 to 1 µM; on M2 (setting [1]) it was 1 to 10 µM; at M3, 1 to 10 µM.
